Laboratory results from US20140221499A1, “NOVEL RODENT CONTROL AGENTS AND USES THEREOF” (priority 2011, published 2014).

What was measured:
TAAR1 = TAAR1 (Mus musculus, UniProt Q923Y8); experiment: TAAR1 reporter gene assay; format: cell-based
Description: HEK293 cells were co-transfected with TAAR expression plasmids and a cAMPdependent reporter gene encoding secreted alkaline phosphatase (CRE-SEAP). Transfected cells were incubated with urine extracts from different mammalian species, and phosphatase activity was quantified with a fluorescent substrate as a reporter for TAAR activation. […] Responses to predator odors were not observed in control cells transfected with reporter gene alone. Three other TAARs-TAAR7f, TAAR8c, and TAAR9-detected natural products common to urine of numerous mammalian species, including mouse, rat, human, and carnivores (FIG. 1B, FIG. 11). However, these receptors detect carnivore and non-carnivore urines with similar sensitivity. We reasoned that TAAR4 detected a specific chemical enriched in predator urine, and that this cue can function as a kairomone. […] Basic dichloromethane extracts of bobcat urine were separated by silica gel chromatography, and fractions analyzed with the reporter gene assay (FIG. 2A). Several chromatography fractions containing the TAAR4 activator were obtained and analyzed by mass spectrometry (FIG. 2B).
TAAR functional assays. […] SEAP activity is measured as fluorescence resulting from dephosphorylation of a substrate, 4-methylumbelliferyl phosphate. Fluorescence values were obtained using an EnVision plate reader (Perkin Elmer) and are reported directly without normalization. […]

rTAAR9 = target: T1, rTAAR9 (Rattus norvegicus, UniProt Q923Y6); experiment: CRE-SEAP reporter gene assay in HEK293 cells transfected with rTAAR9; format: cell-based; details: FIG. 11A, functional with or without 'Rho tag', EC50 ± s.e.m., 4-parameter Hill equation
T1 construct: Full Taar coding regions were cloned into pcDNA3.1; expressed in transfected cells; host or cells: HEK293
T1 sequence (Q923Y6 1-338): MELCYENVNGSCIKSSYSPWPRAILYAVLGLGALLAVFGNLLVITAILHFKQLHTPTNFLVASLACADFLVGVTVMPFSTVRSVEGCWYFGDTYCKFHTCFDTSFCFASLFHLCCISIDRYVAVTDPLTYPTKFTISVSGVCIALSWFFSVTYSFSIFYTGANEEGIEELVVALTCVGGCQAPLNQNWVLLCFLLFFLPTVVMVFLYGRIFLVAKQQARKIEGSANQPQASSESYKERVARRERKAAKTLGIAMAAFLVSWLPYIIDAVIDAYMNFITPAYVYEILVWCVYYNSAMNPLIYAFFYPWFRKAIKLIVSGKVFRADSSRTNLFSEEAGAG
Description: FIG. 11 illustrates the dose-dependent responses of TAARs to amines. HEK293 cells were cotransfected with plasmids encoding CRE-SEAP and rTAARs (a) or mTAARs (b), incubated with concentrations of ligands indicated, and assayed for reporter activity (triplicates±s.d.). EC50 values (±s.e.m, bottom right) were calculated using SigmaPlot (Systat Software) and a 4-parameter Hill equation.
The following mixes (10 μM of each indicated compounds) were tested for their ability to activate rat TAARs. Mix 1: butylamine, dibutylamine, hexylamine. Mix 2: 2-aminopentane, isoamylamine, isobutylamine, isopropylamine. Mix 3: N,N-dimethylcyclohexylamine, 1-methylindole, tryptamine, phenylethylamine. Mix 4: indole, 1-methylpyrrolidine, 1-methylpiperidine, pyrrolidine. […]
Full Taar coding regions were cloned into pcDNA3.1-(Invitrogen) with or without a 5′ DNA extension of 69 bp encoding the first 20 amino acids of bovine rhodopsin followed by a cloning linker ([…]). […] Fluorescence was measured on an EnVision plate reader (Perkin Elmer) and SEAP activity graphed as relative fluorescence of a phosphatase substrate.
Here, we set out to identify agonists for additional mouse and rat TAARs. […] Transfected cells were incubated with test chemicals, and phosphatase activity was quantified with a fluorescent substrate as a reporter for TAAR activation. […]

Sequence of TAAR1 (Q923Y8 whole entry, the tested form may be a part): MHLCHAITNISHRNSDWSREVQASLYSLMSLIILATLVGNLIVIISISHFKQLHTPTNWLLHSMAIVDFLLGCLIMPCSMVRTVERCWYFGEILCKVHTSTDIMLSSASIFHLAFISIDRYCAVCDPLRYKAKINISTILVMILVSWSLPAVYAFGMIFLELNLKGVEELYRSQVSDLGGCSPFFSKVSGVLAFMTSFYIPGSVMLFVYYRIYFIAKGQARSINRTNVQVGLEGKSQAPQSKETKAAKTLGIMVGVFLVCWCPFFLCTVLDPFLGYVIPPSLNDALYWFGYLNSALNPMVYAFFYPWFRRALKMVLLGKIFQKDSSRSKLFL

SMILES: NCCc1ccccc1 [2-phenylethylamine]
- TAAR1 activation (TAAR1): did activate TAAR1

SMILES: CN(C)C1CCCCC1 [N,N-DIMETHYLCYCLOHEXYLAMINE, N,N-dimethylcyclohexylamine]
- EC50 (rTAAR9): 26.6 ± 1.9 µM
